Target: T1, recombinant human glucagon receptor (Homo sapiens, UniProt P47871)
T1 construct: expressed in transfected cells; host or cells: CHO (Chinese hamster ovary) cells
Assay: Inhibition of glucagon-stimulated intracellular cAMP assay
Format: cell-based
Conditions: CHO cells expressing recombinant human glucagon receptor, stimulated with 300 pM glucagon, LANCE cAMP
Method: Inhibition of Glucagon-Stimulated Intracellular cAMP Assay
Chinese hamster ovary (CHO) cells expressing the recombinant human glucagon receptor were harvested with the aid of non-enzymatic cell dissociation solution (GIBCO 13151-014). The cells were then pelleted and suspended in the stimulation buffer (1×HBSS, 5 mM Hepes, 0.1% BSA, pH7.4 in presence of complete protease inhibitor and phosphodiesterase inhibitor). The adenylate cyclase assay was conducted following the LANCE cAMP Kit (Perkin Elmer, AD0262) instructions. Briefly, cells were preincubated with anti-cAMP antibody in the stimulation buffer with a final concentration of 3% DMSO for 30 minutes and then stimulated with 300 pM glucagon for 45 minutes. The reaction was stopped by incubating with the detection buffer containing Europium chelate of the Eu-SA/Biotin-cAMP tracer for 20 hours. The fluorescence intensity emitted from the assay was measured at 665 nm using PheraStar instruments. […] Standard cAMP concentrations were conducted concurrently for conversion of fluorescence signal to cAMP level. Data was analyzed using GraphPad Prism. IC50 values were calculated using non-linear regression analysis assuming single site competition. […] Some of the compounds of the invention shown in the examples measured less than about 5 μM in this assay; other examples measured less than about 500 nM; others less than about 100 nM. […]

T1 sequence (P47871 26-477): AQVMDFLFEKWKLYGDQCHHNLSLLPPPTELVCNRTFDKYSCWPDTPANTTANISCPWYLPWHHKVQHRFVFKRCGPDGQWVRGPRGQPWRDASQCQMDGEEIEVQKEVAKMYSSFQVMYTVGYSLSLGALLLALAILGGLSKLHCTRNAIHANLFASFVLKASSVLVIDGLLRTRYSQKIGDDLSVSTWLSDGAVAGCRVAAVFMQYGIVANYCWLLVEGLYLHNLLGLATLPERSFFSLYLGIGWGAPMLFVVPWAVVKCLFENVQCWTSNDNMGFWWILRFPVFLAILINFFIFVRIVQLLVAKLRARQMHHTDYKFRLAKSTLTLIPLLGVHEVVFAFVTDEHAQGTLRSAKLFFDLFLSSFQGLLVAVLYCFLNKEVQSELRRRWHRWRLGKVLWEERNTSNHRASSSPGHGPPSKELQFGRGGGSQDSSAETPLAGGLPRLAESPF

SMILES | IC50 [nM]
CCC[C@H](c1ccc(C(=O)NCc2nn[nH]n2)cc1)N1C(=O)C(c2cccc(Cl)c2)=NC12CCC(C(C)(C)C)CC2 (some centres unmarked) [Example 1.156] | 452
CC(C)(C)C1CCC2(CC1)N=C(c1ccc(F)cc1)C(=O)N2[C@@H](c1ccc(C(=O)NCCC(=O)O)cc1)C1CC1 (some centres unmarked) [Example 1.212] | 57

Source: US8361959B2, “Spiro-imidazolone derivatives as glucagon receptor antagonists” (Merck Sharp & Dohme Corp., priority 2008, dated 2013)
